Values of other authors in paper PMC6971042, “Exploring ion-ion preferences through structure-property correlations: amino acid-derived, bis(guanidinium) disiloxane salts” (Scientific Reports, 2020).

Parameters: method as in PMID 26714187
Settings: qualitative

C[Si](C)(CCCNC(=N)N)O[Si](C)(C)CCCNC(=N)N.O=[N+]([O-])O [1,3-bis(3-guanidinopropyl)-tetramethyldisiloxane nitrate]
water solubility: abnormally low

C[Si](C)(CCCNC(=N)N)O[Si](C)(C)CCCNC(=N)N [GUA, 1,3-bis(3-guanidinopropyl)-tetramethyldisiloxane dichloride]
water solubility: fully water-miscible
